From patent US6977265B2, “Piperidine CCR-3 receptor antagonists” (Roche Palo Alto LLC, priority 2001, dated 2005)
Counter-ions that a name gives are not always drawn.

Test system: not given
Assay: not given
Conditions: not given

| SMILES | melting point [°C] |
| --- | --- |
| COc1cc(NC(=O)N[C@@H]2CCCC[C@@H]2N2CCC(Cc3ccc(Cl)cc3)CC2)cc(OC)c1OC (racemic) (as salt: hydrochloride) | 120.1 to 137.3 |
| CS(=O)(=O)c1cccc(NC(=O)N[C@@H]2CCCC[C@H]2N2CCC(Cc3ccc(Cl)cc3)CC2)c1 (racemic) (as salt: hydrochloride) | 150.2 to 151.6 |
| COc1cc(NC(=O)N[C@@H]2C[C@H](CO)C[C@H]2N2CCC(Cc3ccc(Cl)cc3)CC2)cc(OC)c1OC (racemic) (as salt: hydrochloride) | 138 to 143 |
| COc1cc(NC(=O)N[C@@H]2CCC[C@H]2N2CCC(Cc3ccc(Cl)cc3)CC2)cc2ccccc12 (racemic) [Example 22, (±)-trans-1-{2-[4-(4-chlorobenzyl)piperidin-1-yl]-cyclopentyl}-3-(4-methoxy-naphthalen-2-yl)urea] | 175 to 190 |
| COc1cc(NC(=O)N[C@@H]2CN(C(N)=O)C[C@H]2N2CCC(Cc3ccc(Cl)cc3)CC2)cc(OC)c1OC (racemic) (as salt: hydrochloride) | 158 to 162 |
| COc1cc(CCNC(=O)N[C@@H]2CCC[C@H]2N2CCC(Cc3ccc(Cl)cc3)CC2)cc(OC)c1OC (racemic) (as salt: hydrochloride) | 90.3 to 95 |
| COc1cc(NC(=O)N[C@@H]2C[C@H](O)C[C@H]2N2CCC(Cc3ccc(Cl)cc3)CC2)cc(OC)c1OC (racemic) (as salt: hydrochloride) | 137 to 143 |
| COc1cc(NC(=O)N[C@@H]2CCCC[C@H]2N2CCC(Cc3ccc(Cl)cc3)CC2)cc(OC)c1OC (racemic) [Example 1, (±)-trans-1-{2-[4-(4-chlorobenzyl)piperidin-1-yl]-cyclohexyl}-3-(3,4,5-trimethoxyphenyl)urea] | 196.9 to 200 |
| COc1cc(NC(=O)N[C@@H]2CN(C(=O)N(C)C)C[C@H]2N2CCC(Cc3ccc(Cl)cc3)CC2)cc(OC)c1OC (racemic) (as salt: hydrochloride) | 142 to 144.5 |
| COC[C@@H]1C[C@@H](N2CCC(Cc3ccc(Cl)cc3)CC2)[C@H](NC(=O)Nc2cc(OC)c(OC)c(OC)c2)C1 (racemic) (as salt: hydrochloride) | 109 to 112 |
| COc1cc(NC(=O)N[C@@H]2CN(C(C)=O)C[C@H]2N2CCC(Cc3ccc(Cl)cc3)CC2)cc(OC)c1OC (racemic) (as salt: hydrochloride) | 155 to 161 |
| COc1cc(NC(=O)N[C@@H]2C[C@H](O)C[C@H]2N2CCC(Cc3ccc(Cl)cc3)CC2)cc(OC)c1OC (racemic) [Example 6, (±)-1-{(1R,2R,4S)-2-[4-(4-chlorobenzyl)piperidin-1-yl]-4-hydroxy-cyclopentyl}-3-(3,4,5-trimethoxyphenyl)urea] | 98.7 to 102 |
| COc1cc(NC(=O)N[C@@H]2CCC[C@@H]2N2CCC(Cc3ccc(Cl)cc3)CC2)cc(OC)c1OC (racemic) (as salt: hydrochloride) | 117.5 to 122.5 |
| COc1cc(NC(=O)N[C@@H]2CN(S(=O)(=O)N(C)C)C[C@H]2N2CCC(Cc3ccc(Cl)cc3)CC2)cc(OC)c1OC (racemic) (as salt: hydrochloride) | 141 to 143 |
| COc1cc(NC(=O)N[C@@H]2C[C@H](OC)C[C@H]2N2CCC(Cc3ccc(Cl)cc3)CC2)cc(OC)c1OC (racemic) (as salt: hydrochloride) | 112.5 to 119.5 |
| COc1cc(NC(=O)N[C@@H]2CNC[C@H]2N2CCC(Cc3ccc(Cl)cc3)CC2)cc(OC)c1OC (racemic) (as salt: hydrochloride) [Example 9, (±)-trans-1-{4-[4-(4-chlorobenzyl)piperidin-1-yl]-pyrrolidin-3-yl}-3-(3,4,5-trimethoxyphenyl)urea dihydrochloride] | 157 to 170 |
| CS(=O)(=O)c1ccc(C(=O)N[C@@H]2CC[C@H]2N2CCC(Cc3ccc(Cl)cc3)CC2)cc1 (racemic) (as salt: hydrochloride) | 173.2 to 184.1 |
| COc1cc(NC(=O)N[C@@H]2CC[C@@H]2N2CCC(Cc3ccc(Cl)cc3)CC2)cc(OC)c1OC (racemic) (as salt: hydrochloride) | 123.7 to 127.9 |
| COc1cc(NC(=O)N[C@@H]2CC[C@H]2N2CCC(Cc3ccc(Cl)cc3)CC2)cc(OC)c1OC (racemic) (as salt: hydrochloride) | 127.4 to 128.2 |
| CS(=O)(=O)c1ccc(C(=O)N[C@@H]2CCC[C@@H]2N2CCC(Cc3ccc(Cl)cc3)CC2)cc1 (racemic) (as salt: hydrochloride) [Example 11, (±)-cis-N-{2-[4-(4-chlorobenzyl)piperidin-1-yl]-cyclopentyl}-4-methanesulfonyl-benzamide hydrochloride] | 125.3 to 131.9 |
| COc1cc(NC(=O)N[C@@H]2CN(CC(N)=O)C[C@H]2N2CCC(Cc3ccc(Cl)cc3)CC2)cc(OC)c1OC (racemic) (as salt: hydrochloride) | 160 to 165 |
| COc1cc(NC(=O)N[C@@H]2CN(S(N)(=O)=O)C[C@H]2N2CCC(Cc3ccc(Cl)cc3)CC2)cc(OC)c1OC (racemic) (as salt: hydrochloride) | 155.7 to 160 |
| COc1cc(NC(=O)N[C@@H]2CN(S(C)(=O)=O)C[C@H]2N2CCC(Cc3ccc(Cl)cc3)CC2)cc(OC)c1OC (racemic) (as salt: hydrochloride) | 148 to 158 |
| COc1cc(NC(=O)N[C@@H]2CN(CCS(C)(=O)=O)C[C@H]2N2CCC(Cc3ccc(Cl)cc3)CC2)cc(OC)c1OC (racemic) (as salt: hydrochloride) | 210.2 to 211.8 |
| COc1cc(NC(=O)N[C@@H]2CCC[C@H]2N2CCC(Cc3ccc(Cl)cc3)CC2)cc(OC)c1OC (racemic) (as salt: hydrochloride) | 136.1 to 138 |
| COc1cc(NC(=O)N[C@@H]2COC[C@H]2N2CCC(Cc3ccc(Cl)cc3)CC2)cc(OC)c1OC (racemic) (as salt: hydrochloride) | 229.2 to 230.9 |
| CS(=O)(=O)c1ccc(C(=O)N[C@@H]2CCCC[C@@H]2N2CCC(Cc3ccc(Cl)cc3)CC2)cc1 (racemic) (as salt: hydrochloride) [Example 14, (±)-cis-N-{2-[4-(4-chlorobenzyl)piperidin-1-yl]-cyclohexyl}-4-methanesulfonyl-benzamide hydrochloride] | 123.7 to 149.4 |

Target: T1, CCR-3 receptor (Homo sapiens, UniProt P51677)
T1 construct: expressed in transfected cells; host or cells: L1.2 (murine pre-B lymphoma line) stably transfected with CCR-3
T1 sequence (P51677 1-355): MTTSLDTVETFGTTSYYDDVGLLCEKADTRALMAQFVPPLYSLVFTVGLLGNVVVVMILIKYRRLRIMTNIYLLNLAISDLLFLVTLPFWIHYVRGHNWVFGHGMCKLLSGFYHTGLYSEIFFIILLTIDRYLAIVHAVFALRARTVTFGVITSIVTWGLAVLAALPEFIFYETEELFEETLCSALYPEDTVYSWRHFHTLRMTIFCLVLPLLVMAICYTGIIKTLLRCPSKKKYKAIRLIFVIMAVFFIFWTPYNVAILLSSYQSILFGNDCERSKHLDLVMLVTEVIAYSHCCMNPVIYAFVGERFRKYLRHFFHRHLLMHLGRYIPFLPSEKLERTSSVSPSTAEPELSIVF
Assay: CCR-3 receptor binding assay, in vitro: inhibition of 125I eotaxin binding to CCR-3 L1.2 transfectant cells
Conditions: inhibition of binding of 125I-eotaxin to CCR-3 L1.2 transfected cells, 1 hour at room temperature
Procedure: The CCR-3 antagonistic activity of the compounds of the invention was determined by their ability to inhibit the binding of ^125I eotaxin to CCR-3 L1.2 transfectant cells (see Ponath, P. D. et al., J. Exp. Med., Vol. 183, 2437-2448, (1996)).
The assay was performed in Costar 96-well polypropylene round bottom plates. Test compounds were dissolved in DMSO and then diluted with binding buffer (50 mM HEPES, 1 mM CaCl2, 5 mM MgCl2, 0.5% bovine serum albumin (BSA), 0.02% sodium azide, pH 7.24) such that the final DMSO concentration was 2%. 25 μl of the test solution or only buffer with DMSO (control samples) was added to each well, followed by the addition of 25 μl of ^125I-eotaxin ([…]) (NEX314, New England Nuclear, Boston, Mass.) and 1.5×10^5 of the CCR-3 L1.2 transfected cells in 25 μl binding buffer. The final reaction volume was 75 μl.
After incubating the reaction mixture for 1 hour at room temperature, the reaction was terminated by filtering the reaction mixture through polyethylenimine treated Packard Unifilter GF/C filter plate (Packard, Chicago, Ill.). The filters were washed four times with ice cold wash buffer containing 10 mm HEPES and 0.5M sodium chloride (pH 7.2) and dried at 65° C. for approximately 10 minutes. 25 μl/well of Microscint-20® scintillation fluid (Packard) was added and the radioactivity retained on the filters was determined by using the Packard TopCount®.

| SMILES | IC50 [nM] |
| --- | --- |
| O=C(N[C@@H]1CCC[C@H]1N1CCC(Cc2ccc(Cl)cc2)CC1)c1cc2cc(Cl)ccc2[nH]1 [Compound 5] | 2690 |
| CC(=O)Nc1cccc(NC(=O)N[C@@H]2CCC[C@H]2N2CCC(Cc3ccc(Cl)cc3)CC2)c1 [Compound 2] | 18.5 |
| COc1ccc(NC(=S)N[C@@H]2CCC[C@H]2N2CCC(Cc3ccc(Cl)cc3)CC2)cc1 [Compound 10] | 512 |
| COc1cc(CC(=O)N[C@@H]2CCC[C@H]2N2CCC(Cc3ccc(Cl)cc3)CC2)cc(OC)c1OC [Compound 7] | 1480 |
| O=C(Nc1ccc2ccccc2n1)N[C@@H]1CCC[C@H]1N1CCC(Cc2ccc(Cl)cc2)CC1 (racemic) [Compound 1, (±)-trans-1-{2-[4-(4-chlorobenzyl)piperidin-1-yl]cyclopentyl}-3-quinolin-2-yl-urea] | 557 |
| O=[N+]([O-])c1ccccc1S(=O)(=O)N[C@@H]1CCC[C@H]1N1CCC(Cc2ccc(Cl)cc2)CC1 [Compound 8] | 6090 |
| O=C(N[C@@H]1CCC[C@H]1N1CCC(Cc2ccc(Cl)cc2)CC1)OCc1ccc([N+](=O)[O-])cc1 [Compound 9] | 5120 |
| O=C(Nc1cccc(Cl)c1Cl)N[C@@H]1CCC[C@H]1N1CCC(Cc2ccc(Cl)cc2)CC1 [Compound 3] | 1140 |
| O=C(NCCc1cccs1)N[C@@H]1CCC[C@H]1N1CCC(Cc2ccc(Cl)cc2)CC1 [Compound 4] | 864 |
| CC(=O)c1cccc(C(=O)N[C@@H]2CCC[C@H]2N2CCC(Cc3ccc(Cl)cc3)CC2)c1 [Compound 6] | 1860 |
